Data taken from PubChem BioAssay (NCI).
≈ marks a conversion by molar mass, not a printed value.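 Dose response: 5 concentrations. Exposure: 48 h. Format: 96-well plates. Endpoint: linear interpolation; highest concentration if not reached. Here, GI50 denotes the concentration required for 50% inhibition of growth. At the TGI there is no net growth.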

Columns and labels:
Assay in all cases: inhibition of tumour cell growth, NCI panel, 48 h
KM12 colon = system: KM12 colon
MDA-N = system: MDA-N
CAKI-1 renal = system: CAKI-1 renal
MCF7 breast = system: MCF7 breast
SW-620 colon = system: SW-620 colon
A549 NSCLC = system: A549 NSCLC
SNB-19 CNS = system: SNB-19 CNS
CCRF-CEM leukemia = system: CCRF-CEM leukemia
OVCAR-5 ovarian = system: OVCAR-5 ovarian
EKVX NSCLC = system: EKVX NSCLC

Row | Compound | GI50 (KM12 colon) [µg/mL] | TGI (KM12 colon) | GI50 (MDA-N) [µg/mL] | TGI (MDA-N) | GI50 (CAKI-1 renal) [µg/mL] | TGI (CAKI-1 renal) | GI50 (MCF7 breast) [µg/mL] | TGI (MCF7 breast) | GI50 (SW-620 colon) [µg/mL] | TGI (SW-620 colon) | GI50 (A549 NSCLC) [µg/mL] | TGI (A549 NSCLC) | GI50 (SNB-19 CNS) [µg/mL] | TGI (SNB-19 CNS) | GI50 (CCRF-CEM leukemia) [µg/mL] | TGI (CCRF-CEM leukemia) | GI50 (OVCAR-5 ovarian) [µg/mL] | TGI (OVCAR-5 ovarian) | GI50 (EKVX NSCLC) [µg/mL] | TGI (EKVX NSCLC)
1 | COc1cc(/C=C2/N=C(c3ccccc3)N(C3=NNC4(C(=O)N3)c3ccccc3-c3ccccc34)NC2=O)ccc1O | 22.7 (≈ 40.9 µM) | 42.9 µg/mL | 31.1 (≈ 55.8 µM) | 65 µg/mL | 22.4 (≈ 40.3 µM) | 75.1 µg/mL | 33.2 (≈ 59.6 µM) | 77.1 µg/mL | 31.1 (≈ 55.9 µM) | 73.6 µg/mL | 15 (≈ 27 µM) | 15 µg/mL | 34.6 (≈ 62.1 µM) | 87.3 µg/mL | 46.3 (≈ 83.2 µM) | > 150 µg/mL | 44.6 (≈ 80.1 µM) | > 150 µg/mL | 15 (≈ 27 µM) | 15 µg/mL
2 | Cn1nc(S(N)(=O)=O)s/c1=N/C(N)=S |  | > 100 µM |  | > 100 µM |  | > 100 µM |  | > 100 µM |  | > 100 µM |  | > 100 µM |  | > 100 µM |  | > 100 µM |  | > 100 µM |  | > 100 µM
3 | COc1ccc2nc3cc(Cl)ccc3c(NCCNCCCNC(=O)c3cc(-c4ccccc4)nc4ccccc34)c2c1 |  | > 100 µM |  | 97.5 µM |  | > 100 µM |  | > 100 µM |  | > 100 µM |  | > 100 µM |  | > 100 µM |  | > 100 µM |  | > 100 µM |  | > 100 µM
4 | Cc1c(NC2(C)C(=O)N(/N=C/c3ccccc3)N=C2c2ccccc2)n[nH]c1-c1ccccc1 (stereo not given) |  | > 100 µM |  | > 100 µM |  | > 100 µM |  | > 100 µM |  | > 100 µM |  | > 100 µM |  | > 100 µM |  | > 100 µM |  | > 100 µM |  | > 100 µM
5 | O=C(CNc1ccc(Cl)cc1Cl)NC1C=Cc2ccc(S(=O)(=O)Nc3ccc(Cl)cc3Cl)cc2C1=O (stereo not given) |  | > 100 µM |  | > 100 µM |  | > 100 µM |  | > 100 µM |  | > 100 µM |  | > 100 µM |  | > 100 µM |  | > 100 µM |  | > 100 µM |  | > 100 µM
6 | COc1c(C)c(OC)c2c(c1O)[C@@H]1[C@@H]3Cc4c(OC)c(C)c(OC)c(O)c4[C@H](CNC(=O)c4cnc5ccccc5n4)N3[C@@H](C#N)[C@H](C2)N1C |  | 0.00382 µM |  | 0.00362 µM |  | > 0.0391 µM |  | > 0.1 µM |  | > 0.0313 µM |  | > 0.1 µM |  | > 0.0533 µM |  | 0.0054 µM |  | > 0.1 µM |  | > 0.00703 µM
7 | NC(N)=NS(=O)(=O)c1ccc(NC(=O)c2ccc3nc4ccccc4c(Nc4ccc(S(N)(=O)=O)cc4)c3c2)cc1 |  | > 100 µM |  | > 100 µM |  | > 100 µM |  | > 100 µM |  | > 100 µM |  | > 100 µM |  | > 100 µM |  | > 100 µM |  | > 100 µM |  | > 100 µM
8 | COC(=O)[C@@]12CCCC(=O)[C@@H]1[C@H]1CCCC[C@H]12 |  | > 100 µM |  | > 100 µM |  | > 100 µM |  | > 100 µM |  | > 100 µM |  | > 100 µM |  | > 100 µM |  | > 100 µM |  | > 100 µM |  | > 100 µM
9 | CCO/C(O)=C(/C(=N)N1CCCC1)C(=O)Nc1cccc(C(F)(F)F)c1 |  | > 100 µM |  | > 100 µM |  | > 100 µM |  | > 100 µM |  | > 100 µM |  | > 100 µM |  | > 100 µM |  | > 100 µM |  | > 100 µM |  | > 100 µM
10 | Cc1cc(=O)oc2cc(O)ccc12 |  | > 100 µM |  | > 100 µM |  | > 100 µM |  | > 100 µM |  | > 100 µM |  | > 100 µM |  | > 100 µM |  | > 100 µM |  | > 100 µM |  | > 100 µM
11 | Cc1ccc(-c2n[nH]c(=O)[nH]2)cc1[N+](=O)[O-] |  | > 100 µM |  | > 100 µM |  | > 100 µM |  | > 100 µM |  | > 100 µM |  | > 100 µM |  | > 100 µM |  | > 100 µM |  | > 100 µM |  | > 100 µM
12 | COc1ccc(OC)c2c1C1CCC(=O)N1CN2C(C)=O (stereo not given) |  | > 100 µM |  | > 100 µM |  | > 100 µM |  | > 100 µM |  | > 100 µM |  | > 100 µM |  | > 100 µM |  | > 100 µM |  | > 100 µM |  | > 100 µM
